Active and inactive are the calls of the source. No cut-off for these calls is given here.
How the values were obtained:
[1] = tested on: Rattus norvegicus; assay: Percent inhibition against carrageenan-induced rat paw edema at 50 mg/kg dose administered perorally; format: functional; conditions: route oral
[2] = tested on: Rattus norvegicus; assay: Anti-inflammatory activity following oral administration; format: functional
[3] = tested on: Rattus norvegicus; assay: Analgesic activity by oral administration route; format: functional
[4] = tested on: Rattus norvegicus; assay: Percent inhibition against carrageenan-induced rat paw edema at 50 mg/kg dose administered perorally; 21-30%; format: functional; conditions: route oral
[5] = tested on: Rattus norvegicus; assay: Percent inhibition against carrageenan-induced rat paw edema at 50 mg/kg dose administered perorally; 0-10%; format: functional; conditions: route oral
[6] = tested on: Rattus norvegicus; assay: Percent inhibition against carrageenan-induced rat paw edema at 50 mg/kg dose administered perorally; 11-20%; format: functional; conditions: route oral
[7] = tested on: Rattus norvegicus; assay: Percent inhibition against carrageenan-induced rat paw edema at 50 mg/kg dose administered perorally; 31-40%; format: functional; conditions: route oral
[8] = tested on: Rattus norvegicus; assay: Percent inhibition against carrageenan-induced rat paw edema at 50 mg/kg dose administered perorally; 41-50%; format: functional; conditions: route oral
[9] = tested on: Mus musculus; assay: Number of mice bearing ulcer at dose 60 mg/kg out of 5 mices tested; format: functional
[10] = tested on: Mus musculus; assay: Ulcer index by number of mice bearing ulcer at dose 60 mg/kg out of 5 mice tested; format: functional
[11] = tested on: Mus musculus; assay: Toxicity by number of mice dead at dose 500 mg/kg out of 5 mice tested by oral administration route; Value represented as 1/5; format: organism-based; set-up: dose 500 mg/kg, route oral; conditions: in vivo
[12] = tested on: Rattus norvegicus; assay: Analgesic activity by oral administration of 200 mg/kg; Not effective; format: functional, organism-based; set-up: dose 200 mg/kg
[13] = tested on: Mus musculus; assay: Number of mice bearing ulcer at dose 48 mg/kg out of 5 mices tested; format: functional
[14] = tested on: Mus musculus; assay: Toxicity by number of mice dead at dose 500 mg/kg out of 5 mice tested by oral administration route; Value represented as 0/5; format: organism-based; set-up: dose 500 mg/kg, route oral; conditions: in vivo
[15] = tested on: Mus musculus; assay: Ulcer index by number of mice bearing ulcer at dose 48 mg/kg out of 5 mice tested; format: functional

Compound `CC(C)c1nc(=O)c2ccc(Cl)cc2n1-c1ccccc1` has an inhibition in vivo at 50 mg/kg [1] of at least 51%, an ED30 [2] of 21 mg/kg and an ED30 [3] of 80 mg/kg.
`Cc1ccc2c(=O)nc(C(C)C)n(-c3ccccc3)c2c1` gave an inhibition in vivo at 50 mg/kg [4] of 30%.
`CC(C)n1c(-c2ccc([N+](=O)[O-])cc2)nc(=O)c2ccccc21` showed an inhibition in vivo at 50 mg/kg [5] of 10%.
Work on `CC(C)c1nc(=O)c2ccccc2n1-c1ccc(CC(=O)O)cc1` yielded an inhibition in vivo at 50 mg/kg [6] of 20%.
`Cc1ccc(-c2nc(=O)c3ccccc3n2C(C)C)cc1` showed an inhibition in vivo at 50 mg/kg [5] of 10%.
`CC(C)c1nc(=O)c2ccccc2n1-c1ccc(N)cc1` was tested, and the inhibition in vivo at 50 mg/kg [4] was 30%.
For `CCOC(=O)C(C)c1nc(=O)c2ccccc2n1-c1ccccc1` (centres undefined), the inhibition in vivo at 50 mg/kg [4] was 30%.
For `CC(C)n1c(-c2ccccc2F)nc(=O)c2ccc(Cl)cc21`, the inhibition in vivo at 50 mg/kg [7] was 40%.
Compound `Cc1nc(=O)c2ccccc2n1-c1ccccc1` has an inhibition in vivo at 50 mg/kg [5] of 10%.
Work on `O=c1nc(C2CC2)n(-c2ccc([N+](=O)[O-])cc2)c2ccccc12` yielded an inhibition in vivo at 50 mg/kg [5] of 10%.
With `O=c1nc(CCl)n(-c2ccccc2)c2ccccc12` the inhibition in vivo at 50 mg/kg [5] was 10%.
With `CC(C)n1c(-c2ccc(F)cc2)nc(=O)c2ccccc21` the inhibition in vivo at 50 mg/kg [8] was 50%.
Work on `CC(C)c1nc(=O)c2ccccc2n1-c1ccc(F)cc1` yielded an inhibition in vivo at 50 mg/kg [8] of 50%, an ED30 [2] of 30 mg/kg and an ED30 [3] of 76 mg/kg.
With `CC(C)c1nc(=O)c2ccccc2n1-c1ccc(Cl)cc1` the inhibition in vivo at 50 mg/kg [1] was at least 51%.
`CC(C)n1c(-c2ccc(Cl)c(Cl)c2)nc(=O)c2ccccc21` gave an inhibition in vivo at 50 mg/kg [8] of 50%.
With `CC(=O)c1ccc(-n2c(C(C)C)nc(=O)c3ccccc32)cc1` the inhibition in vivo at 50 mg/kg [4] was 30%.
Work on `CC(C)c1nc(=O)c2ccccc2n1-c1ccc([N+](=O)[O-])cc1` yielded an inhibition in vivo at 50 mg/kg [7] of 40%.
For `CC(C)n1c(-c2ccccc2F)nc(=O)c2ccccc21`, the No. of mice [9] was 1, the “Ulcer Index” value [10] was 0.1 and the inhibition in vivo at 50 mg/kg [1] was at least 51%. For the same compound, the ED30 [2] was 20 mg/kg, the Toxicity [11] was 1 and the ED30 [3] was 65 mg/kg.
`Cc1ccccc1-n1c(C(C)C)nc(=O)c2ccccc21` gave an inhibition in vivo at 50 mg/kg [7] of 40%.
Work on `CC(C)n1c(-c2ccccc2)nc2ccccc2c1=O` yielded an inhibition in vivo at 50 mg/kg [4] of 30%.
`CC(C)n1c(-c2ccccc2)nc(=O)c2ccc(Cl)cc21` was tested, and the ED30 [12] was “inactive”, the inhibition in vivo at 50 mg/kg [8] was 50% and the No. of mice [13] was 3. The Toxicity [14] was 0, the ED30 [2] was 16 mg/kg and the “Ulcer Index” value [15] was 0.2.
For `CCN(CC)Cc1nc(=O)c2ccccc2n1-c1cccc(C(F)(F)F)c1`, the inhibition in vivo at 50 mg/kg [4] was 30%.
For `Cc1nc(=O)c2ccccc2n1-c1cccc(C(F)(F)F)c1`, the inhibition in vivo at 50 mg/kg [5] was 10%.
Compound `CC(C)c1nc(=O)c2cc(CC(=O)O)ccc2n1-c1ccccc1` has an inhibition in vivo at 50 mg/kg [5] of 10%.
`CC(C)c1nc(=O)c2ccc([N+](=O)[O-])cc2n1-c1ccccc1` showed an inhibition in vivo at 50 mg/kg [5] of 10%.
In the case of `COC(=O)CCc1nc(=O)c2ccccc2n1-c1ccccc1`, the inhibition in vivo at 50 mg/kg [5] is reported as 10%.
Work on `CC(C)c1nc(=O)n(-c2ccccc2)c2ccccc12` yielded an inhibition in vivo at 50 mg/kg [5] of 10%.
`O=c1nc(C2CC2)n(-c2ccc(F)cc2)c2ccccc12` was tested, and the inhibition in vivo at 50 mg/kg [1] was at least 51%.
`COc1cccc2c1c(=O)nc(-c1ccccc1)n2C(C)C` was tested, and the inhibition in vivo at 50 mg/kg [6] was 20%.
`Cc1ccc2c(c1)c(=O)nc(C(C)C)n2-c1ccccc1` showed an inhibition in vivo at 50 mg/kg [4] of 30%.
For `CC(C)n1c(-c2ccccc2)nc(=O)c2cc(Br)ccc21`, the inhibition in vivo at 50 mg/kg [4] was 30%.
`CC(=O)c1ccc2c(c1)c(=O)nc(C(C)C)n2-c1ccccc1` showed an inhibition in vivo at 50 mg/kg [5] of 10%.
`O=c1nc(C2CCCCCC2)n(-c2ccccc2)c2ccccc12` showed an inhibition in vivo at 50 mg/kg [5] of 10%.
For `CC(C)n1c(-c2cccc(Cl)c2)nc(=O)c2ccccc21`, the inhibition in vivo at 50 mg/kg [8] was 50%.
In the case of `COc1ccc2c(c1)c(=O)nc(-c1ccccc1F)n2C(C)C`, the inhibition in vivo at 50 mg/kg [4] is reported as 30%.
`CC(C)c1nc2ccccc2c(=O)n1-c1ccccc1` showed an inhibition in vivo at 50 mg/kg [4] of 30%.
`CC(C)n1c(-c2ccccc2F)nc(=O)c2cc(Cl)ccc21` showed an inhibition in vivo at 50 mg/kg [6] of 20%.
Work on `CC(C)n1c(-c2ccc(Cl)cc2)nc(=O)c2cc(Cl)ccc21` yielded an inhibition in vivo at 50 mg/kg [5] of 10%.
`CC(C)n1c(-c2ccccc2Br)nc(=O)c2ccccc21` gave an inhibition in vivo at 50 mg/kg [5] of 10%.
`CC(C)n1c(-c2ccccc2)nc(=O)c2ccccc21` gave an inhibition in vivo at 50 mg/kg [8] of 50%.
